Data reported in patent publication US9937178B2, “Methods of identifying and using MDM2 inhibitors” (DUKE UNIVERSITY, priority 2011, dated 2018).

Key:
rBT474 xenografts = test: rBT474 mammary fat pad xenograft; details: 100 mg/kg each drug, twice daily by oral gavage
Description: Forty-eight hours after siRNA transfection, cells were treated with 1 μM lapatinib for 48 hours, and cells were harvested and subjected to Annexin V staining. The percentage of Annexin V-positive cells was analyzed by FACS. Results are expressed as a mean percentage±SEM and analyzed by t-test (*P<0.05). […] The oral administration of lapatinib (100 mg/kg, twice daily by oral gavage) began when the average tumor volume surpassed 300 mm^3. Results are expressed as a mean percentage±SEM. […] After 36 hours, cells were harvested and immunoblotted. […] BT474 and rBT474 cells were injected into the mammary fad pad of each mouse. When tumors developed to a size of 200 mm^3, the mice were randomly assigned to receive vehicle, lapatinib (100 mg/kg), Nutlin-3 (100 mg/kg), or Lapatinib+Nutlin-3 and treated twice daily by oral gavage. Results are expressed as a mean percentage±SEM. […] Percentage of apoptotic cell death was measured by FACS analysis using Annexin V. Results are expressed as a mean percentage±SEM of Annexin V-positive cells (*P<0.05 by t-test).
Six week-old female nude mice were purchased from NCI Frederic. Xenograft tumors were produced by injection into the mammary fat pad with cells (10×10^6). Tumor volumes were calculated every 3-4 days based on caliper measurements of the short (a) and long (b) tumor diameters (volume=a2b/2). […]

rAU565-derived tumor = test: rAU565 mammary fat pad xenograft; details: 100 mg/kg each drug, twice daily by oral gavage
Description: Six week-old female nude mice were purchased from NCI Frederic. Xenograft tumors were produced by injection into the mammary fat pad with cells (10×10^6). Tumor volumes were calculated every 3-4 days based on caliper measurements of the short (a) and long (b) tumor diameters (volume=a2b/2). […] Mice were dosed orally with vehicle alone, lapatinib (100 mg/kg), Nutlin-3 (100 mg/kg), or combination of both twice daily by gavage.

Mcl-1 = test: 35[S]-Mcl-1 degradation in cell-free lysates; assay type: cell-based; details: resistant cell lysates, only from cells treated with lapatinib (rBT474)
Description: FIG. 3 is a set of photographs showing that Mcl-1 is stabilized in lapatinib-resistant cells. […] FIG. 3B is a set of immunoblots showing the levels of HER2 and phospho-HER2 in untreated cells and cells treated with lapatinib. Cells were treated with or without lapatinib (1 μM) for 24 hours in the presence of the caspase inhibitor z-VAD (50 μM). The cells were harvested and cell lysates were immunoblotted using antibodies against phospho-HER2 (Y877) and total HER2. FIG. 3C is an immunoblot for phospho-AKT (T308) and total AKT. BT474 and rBT474 cells were treated with 1 μM lapatinib in the presence of 50 μM z-VAD. At the indicated time points, the cells were harvested and immunoblotted. FIG. 3D is an immunoblot for phospho-Erl1/2(T202/Y204) and total Erk1/2. BT474 and rBT474 cells were treated with 1 μM lapatinib in the presence of 50 μM z-VAD. At the indicated time points, the cells were harvested and immunoblotted. […] FIG. 3F is an autoradiograph showing the ^35[S] radioactivity in lysates containing ^35[S]-Mcl-1 at the indicated time points. ^35[S]-labeled Mcl-1 protein was incubated in cell-free lysates prepared from BT474 and rBT474 cells (top) or SKBR3 and rSKBR3 cells (bottom). […] FLAG-Mcl-1 was retrieved by immunoprecipitation using anti-flag agarose, and Mcl-1 ubiquitylation was analyzed by immunoblotting for HA (*non-specific band, **IgG heavy chain). […]

CAS = test: Immunoblot of CAS protein levels; assay type: cell-based
Description: FIG. 11 is a set of photographs of immunoblots showing CAS degradation in lapatinib-resistant cells. FIG. 11A is an immunoblot for CAS and Actin. BT474 and rBT474 (left) or AU565 and rAU565 cells (right) cultured in the absence of lapatinib for one week were treated with 1 μM lapatinib and the cells were harvested at various time points. FIG. 11B is an immmunoblot for CAS and Actin. rBT474 cells were maintained in the presence of […] lapatinib and the cells were harvested at various time points following removal of lapatinib. FIG. 11C is an immunoblot for FLAG and actin. BT474 and rBT474 cells were transiently transfected with FLAG-tagged CAS and subsequently treated with 50 μg/ml cycloheximide (CHX) and 1 μM lapatinib and the cells were harvested at various time points. FIG. 11D is an immunoblot using HA to analyze ubiquitination of CAS. BT474 and rBT474 (left) or SKBR3 and rSKBR3 cells (right) were co-transfected with FLAG-CAS and HA-Ub. […] After treatment with 10 μM MG 132 for 8 hours, cells were harvested and FLAG-CAS was retrieved by immunoprecipitation. FIG. 11E is an immunoblot for FLAG-tagged proteins retrieved by immunoprecipitation and association with MDM2. H1299 cells were transfected with empty vector, FLAG-CAS^W127A, or FLAG-CAS wild type. FIG. 11F is an immunoblot for CAs after immunoprecipitation for FLAG. H1299 cells were transfected with empty vector, FLAG-CAS^W127A, or FLAG-CAS wild type. Cells were treated with 10 μM MG132 for 3 hours. […] SKBR3 cells were transfected with increasing amounts of MDM2. After 48 hours, cells were harvested and immunoblotted (*non-specific band). FIG. 11H is an immunoblot for CAS. […] FIG. 11I is an immunoblot for MDM2 or CAs after immunoprecipitation with FLAG. BT474 and rBT474 cells were transfected with FLAG-CAS. […] After treatment with 10 μM MG132 for 5 hours, FLAG-CAS was retrieved by immunoprecipitation and association of endogenous MDM2 was analyzed by immunoblotting.

Huwe1 = test: Immunoblot of Huwe1 protein levels and stability; assay type: cell-based
Description: FIG. 13 is a set of immunoblots showing MDM2-mediated ubiquitylation and degradation of Huwe1 in lapatinib-resistant cells. […] Cells treated with 1 μM lapatinib were harvested at various time points and immunoblotted. […] FIG. 13B is an immunoblot for HA and actin. BT474 and rBT474 cells were transiently transfected with HA-tagged Huwe1 and subsequently treated with 50 μg/ml cycloheximide (CHX) and 1 μM lapatinib. FIG. 13C is an immunoblot for Huwe1 and MDM2. Immunoprecipitation was carried out using H1299 cell lysates and anti-Huwe1 antibody (or control IgG). FIG. 13D is an immunoblot for HA or MDM2 after immunoprecipitation with HA. BT474 cells were transfected with HA-tagged Huwe1 encoding the full-length protein, residues 1-2474, or residues 2473-4374. […] H1299 cells were transfected with empty vector, HA-Huwe1^W1202A, or HA-Huwe1 wild type. FIG. 13F is an immunoblot for Huwe1 and Actin. BT474 cells were transfected with increasing amounts of MDM2 and harvested after 48 hours. FIG. 13G is an immunoblot for Huwe1, MDM2, and actin. […] FIG. 13H is an immunoblot for Huwe1. Ubiquitylation of Huwe1 was reconstituted in vitro by incubating recombinant Huwe1 protein (Huwe1^1-2474) with E1, UbcH5 (E2), ubiquitin (Ub), and recombinant MDM2 protein in reaction buffer at 37° C. for 3 hours. […] Twenty-four hours later, the cells were replated and further transfected with HA-tagged Huwe1 (wild type). Forty-eight hours after siRNA transfection, the cells were treated with 1 μM lapatinib. After 24 hours of lapatinib treatment, 50 μg/ml cycloheximide (CHX) was added to the culture medium and cells were harvested at various time points for immunoblotting.

[1] = resistant cells, 1 μM lapatinib

With CS(=O)(=O)CCNCc1ccc(-c2ccc3ncnc(Nc4ccc(OCc5cccc(F)c5)c(Cl)c4)c3c2)o1 [lapatinib] the rBT474-derived tumor growth (rBT474 xenografts) was “Neither lapatinib nor Nutlin-3 inhibited”, the rAU565-derived tumor growth (rAU565-derived tumor) was “not rAU565-derived tumor growth” and the Mcl-1 protein half-life (Mcl-1) was “prolonged”. For the same molecule, the CAS protein levels (CAS; low-HER2 lines non-responsive to lapatinib (e.g., T47D cells)) was “did not alter”, the CAS protein levels (CAS; parental cells, 1 μM lapatinib) was “did not affect” and the CAS protein levels (CAS; [1]) was “declined over time”. For the same molecule, the Huwe1 protein half-life (Huwe1; lapatinib-treated rBT474 cells compared to BT474 cells, 50 μg/ml cycloheximide) was “significantly shorter”, the Huwe1 protein levels (Huwe1; parental cells, 1 μM lapatinib) was “remained stable” and the Huwe1 levels (Huwe1; [1]) was “significantly decreased”.
